First: O=C(NS(=O)(=O)N1CCC(N2CCC(Oc3ccc(Cl)c(Cl)c3)CC2)CC1)c1ccc(Cl)c(Cl)c1 [Example 8A, N-(3,4-Dichlorobenzoyl)-4-(3,4-dichlorophenoxy)-(1,4′-bipiperidine]-1′-sulfonamide]
Second: O=C(NS(=O)(=O)N1CCC(N2CCC(Oc3ccc(Cl)c(Cl)c3)CC2)CC1)c1c[nH]c(=O)c2ccccc12 [Example 11A, 4-(3,4-Dichlorophenoxy)-N-[(1,2-dihydro-1-oxo-4-isoquinolinyl)carbonyl]-[1,4′-bipiperidine]-1′-sulfonamide]
The melting point of the first is lower: 166 to 167 °C for the first, 200 °C for the second.

Compared with `Cc1ccc(S(=O)(=O)NS(=O)(=O)N2CCC(N3CCC(Oc4ccc(Cl)c(Cl)c4)CC3)CC2)cc1.[Na]`, `Cc1c(Cl)ccc(OC2CCN(C3CCN(S(=O)(=O)NC(=O)c4ccccc4)CC3)CC2)c1Cl` [Example 5A, N-Benzoyl-4-(2,4-dichloro-3-methylphenoxy)-[1,4′-bipiperidine)-1′-sulfonamide] is lower in melting point: 242 to 243 °C for the first, 223 °C for the second.

For `O=C(NC(=O)N1CCC(N2CCC(Oc3ccc(Cl)c(Cl)c3)CC2)CC1)c1ccccc1` [Example 7A, N-Benzoyl-4-(3,4-dichlorophenoxy)-[1,4′-bipiperidine]-1′-carboxamide], the melting point was 65 to 80 °C.

From US7307090B2, “Piperidine derivatives useful as modulators of chemokine receptor activity” (AstraZeneca AB, priority 2001, dated 2007)
